The nature of the data set: RP, Waters ACQUITY UPLC BEH C18, 100 × 2.1 mm, 1.7 µm, 0.3 mL/min, estimated dead time 0.73 min; A: water + 0.1% formic acid, pH 3; B: methanol + 0.1% formic acid, pH 3; gradient (min/%B) 0/10 14/90 16/90 18/10. The settings on record: stereoisomer not certain.
As for `COc1ccc(NC(=O)N(C)C)cc1Cl` [Metoxuron], the LC retention time is 6.3 min.
As for `CSc1nnc(C(C)(C)C)c(=O)n1N` [Metribuzin], the figure is 7.06 min; as for `Cc1ncc([N+](=O)[O-])n1CCO` [Metronidazole (MNZ)], 5.38 min; as for `COC(=O)c1ccccc1S(=O)(=O)NC(=O)Nc1nc(C)nc(OC)n1` [Metsulfuron methyl], 5 min.
Consider `COC(=O)C=C(C)OP(=O)(OC)OC` [Mevinphos trans], for which the LC retention time is 4.95 min.
The same measure for `CCC1(C2OC(C3OC(O)(CO)C(C)CC3C)CC2C)CCC(C2(C)CCC3(CC(O)C(C)C(C(C)C(OC)C(C)C(=O)O)O3)O2)O1` (configuration not stated) [Monensin]: 15.3 min.
Consider `CNC(=O)C=C(C)OP(=O)(OC)OC` [Monocrotophos], for which the LC retention time was 3.57 min.
As for `CON(C)C(=O)Nc1ccc(Cl)cc1` [Monolinuron], the figure is 8.07 min.
The same measure for `CN1CCC23c4c5ccc(O)c4OC2C(O)C=CC3C1C5` (configuration not stated) [Morphine]: 2.86 min.
The same measure for `CON=C1CC2(CC3CC(CC=C(C)CC(C)C=CC=C4COC5C(O)C(C)=CC(C(=O)O3)C45O)O2)OC(C(C)=CC(C)C)C1C` (configuration not stated) [Moxidectin]: 15.8 min; for `COc1c(N2CC3CCCNC3C2)c(F)cc2c(=O)c(C(=O)O)cn(C3CC3)c12` (configuration not stated) [Moxifloxacin]: 5.23 min.
As to `CCCCC(C#N)(Cn1cncn1)c1ccc(Cl)cc1` (configuration not stated) [Myclobutanil], the LC retention time was 10.6 min.
The same measure for `CCn1cc(C(=O)O)c(=O)c2ccc(C)nc21` [Nalidixic acid]: 7.99 min.
The same measure for `CC12CCC3C4CCC(=O)C=C4CCC3C1CCC2O` (stereo not drawn) [Nandrolone. beta-nortestosterone]: 10.6 min; for `CCN(CC)C(=O)C(C)Oc1cccc2ccccc12` (configuration not stated) [Napropamide]: 11 min; for `O=C(O)c1ccccc1C(=O)Nc1cccc2ccccc12` [Naptalam]: 6.59 min.
`CCC(C(=O)O)C1OC(C(C)C(O)C(C)C(=O)C(CC)C2OC3(C=CC(O)C4(CCC(C)(C5CCC(O)(CC)C(C)O5)O4)O3)C(C)CC2C)C(C)CC1C` (configuration not stated) [Narasin]: the LC retention time is 16.5 min.
As to `COc1cc(OC)nc(NC(=O)NS(=O)(=O)c2ncccc2C(=O)N(C)C)n1` [Nicosulfuron], the LC retention time was 5.39 min.
As for `CN1CCCC1c1cccnc1` (configuration not stated) [Nicotine], the LC retention time was 1.12 min.
The same measure for `O=C1CN(N=Cc2ccc([N+](=O)[O-])o2)C(=O)N1` [Nitrofurantoin]: 2.83 min; for `NC(=O)NN=Cc1ccc([N+](=O)[O-])o1` [Nitrofurazone]: 2.99 min; for `O=C(OC1CC2CCC(N2)C1C(=O)O)c1ccccc1` (configuration not stated) [Norbenzoylecgonine]: 5.1 min.
As for `COC(=O)C1C2CCC(CC1OC(=O)c1ccccc1)N2` (configuration not stated) [Norcocaine], the figure is 6.29 min.
As for `O=C1CN=C(c2ccccc2)c2cc(Cl)ccc2N1` [Nordiazepam], the figure is 10.5 min; as for `CCn1cc(C(=O)O)c(=O)c2cc(F)c(N3CCNCC3)cc21` [Norfloxacin], 4.27 min.
For the molecule `CNc1cnn(-c2cccc(C(F)(F)F)c2)c(=O)c1Cl` [Norflurazon], the LC retention time was 9.22 min.
The same measure for `O=C(NC(=O)c1c(F)cccc1F)Nc1ccc(OC(F)(F)C(F)OC(F)(F)F)c(Cl)c1` (configuration not stated) [Novaluron]: 12.6 min; for `OC(c1ccc(F)cc1)(c1cncnc1)c1ccccc1Cl` (configuration not stated) [Nuarimol (Trimidal)]: 10 min; for `CCCCCc1cc(O)c2c(c1)OC(C)(C)C1CC(O)C(C)=CC21` (configuration not stated) [OH-THC]: 13.9 min.
As for `CC1Cc2c(Cl)cc(C(=O)NC(Cc3ccccc3)C(=O)O)c(O)c2C(=O)O1` (configuration not stated) [Ochratoxin A], the LC retention time is 9.15 min.
As for `CC1Cc2c(Cl)cc(C(=O)O)c(O)c2C(=O)O1` (stereo not drawn) [Ochratoxin Alpha], the figure is 11.2 min; as for `CCCCCCCCn1sccc1=O` [Octhilinone (2-Octyl-4-isothiazoline-3-one)], 11 min.
The same measure for `CC1COc2c(N3CCN(C)CC3)c(F)cc3c(=O)c(C(=O)O)cn1c23` (configuration not stated) [Ofloxacin]: 4.08 min; for `Cc1cccc(C)c1N(C(=O)CCl)C1CCOC1=O` (configuration not stated) [Ofurace]: 7.69 min; for `Cc1cc2c(s1)Nc1ccccc1N=C2N1CCN(C)CC1` [Olanzapine]: 3.3 min.
As for `COc1ccc2nc(S(=O)Cc3ncc(C)c(OC)c3C)[nH]c2c1` (configuration not stated) [Omeprazole], the LC retention time was 7.14 min.
As for `CNC(=O)CSP(=O)(OC)OC` [Omethoate], the figure is 2.5 min; as for `CCN(CC)C(=O)SCc1ccccc1Cl` [Orbencarb], 11.9 min; as for `CCCN(CCC)c1c([N+](=O)[O-])cc(S(N)(=O)=O)cc1[N+](=O)[O-]` [Oryzalin], 11.1 min.
As for `CC(C)Oc1cc(-n2nc(C(C)(C)C)oc2=O)c(Cl)cc1Cl` [Oxadiazon], the figure is 13 min; as for `COCC(=O)N(c1c(C)cccc1C)N1CCOC1=O` [Oxadixyl], 6.71 min.
Consider `CNC(=O)ON=C(SC)C(=O)N(C)C` [Oxamyl], for which the LC retention time was 2.84 min.
As for `Cc1cc(C)nc(NC(=O)NS(=O)(=O)c2ccccc2C(=O)OC2COC2)n1` [Oxasulfuron], the figure is 6.3 min.
For `COC(=O)Nc1nc2ccc(S(=O)c3ccccc3)cc2[nH]1` (configuration not stated) [Oxfendazole], the LC retention time was 7.31 min.
As for `CCn1cc(C(=O)O)c(=O)c2cc3c(cc21)OCO3` [Oxolinic acid], the figure is 6.58 min.
The same measure for `CC1=C(C(=O)Nc2ccccc2)S(=O)(=O)CCO1` [Oxycarboxin]: 5.41 min; for `CCS(=O)CCSP(=O)(OC)OC` (configuration not stated) [Oxydemeton-methyl]: 3.15 min.
The same measure for `CCOc1cc(Oc2ccc(C(F)(F)F)cc2Cl)ccc1[N+](=O)[O-]` [Oxyfluorfen]: 13.8 min; for `CCCCC1C(=O)N(c2ccccc2)N(c2ccc(O)cc2)C1=O` (configuration not stated) [Oxyphenylbutazone]: 9.97 min.
On to `CN(C)C1C(=O)C(C(N)=O)=C(O)C2(O)C(=O)C3=C(O)c4c(O)cccc4C(C)(O)C3C(O)C12` (configuration not stated) [Oxytetracycline], for which the LC retention time was 3.94 min.
In the case of `CC(C)(C)C(O)C(Cc1ccc(Cl)cc1)n1cncn1` (configuration not stated) [Paclobutrazol], the LC retention time was 10.8 min.
The same measure for `COc1ccnc(CS(=O)c2nc3ccc(OC(F)F)cc3[nH]2)c1OC` (configuration not stated) [Pantoprazol]: 7.67 min; for `COP(=S)(OC)Oc1ccc([N+](=O)[O-])cc1` [Parathion-methyl]: 9.6 min; for `CCOP(=S)(OCC)Oc1ccc([N+](=O)[O-])cc1` [Parathion]: 11.3 min.
On to `Fc1ccc(C2CCNCC2COc2ccc3c(c2)OCO3)cc1` (configuration not stated) [Paroxetine], for which the LC retention time is 9.22 min.
The same measure for `CCCCN(CC)C(=O)SCCC` [Pebulate (Tillam)]: 12.1 min; for `CCn1cc(C(=O)O)c(=O)c2cc(F)c(N3CCN(C)CC3)cc21` [Pefloxacin]: 4.09 min; for `CCCC(Cn1cncn1)c1ccc(Cl)cc1Cl` (configuration not stated) [Penconazole]: 11.6 min.
The same measure for `O=C(Nc1ccccc1)N(Cc1ccc(Cl)cc1)C1CCCC1` [Pencycuron]: 12.2 min; for `CCC(CC)Nc1c([N+](=O)[O-])cc(C)c(C)c1[N+](=O)[O-]` [Pendimethalin]: 14.2 min.
Regarding `C=C(C)C1(O)OC(=O)C=C1OC` (configuration not stated) [Penicillic acid], the LC retention time was 3.78 min.
The same measure for `CC1(C)SC2C(NC(=O)Cc3ccccc3)C(=O)N2C1C(=O)O` (configuration not stated) [Penicillin G]: 8.55 min; for `COC(=O)Nc1cccc(OC(=O)Nc2cccc(C)c2)c1` [Phenmedipham]: 9.52 min.
`CCCCC1C(=O)N(c2ccccc2)N(c2ccccc2)C1=O` [Phenylbutazone]: the LC retention time is 11.6 min.
As for `CCOP(=S)(OCC)SCS(=O)(=O)CC` [Phorate sulfone], the figure is 8.76 min.
For the molecule `CCOP(=S)(OCC)SCn1c(=O)oc2cc(Cl)ccc21` [Phosalone], the LC retention time was 12 min.
As for `COP(=S)(OC)SCN1C(=O)c2ccccc2C1=O` [Phosmet], the figure is 9.52 min; as for `CCOP(=S)(OCC)ON=C(C#N)c1ccccc1` [Phoxim], 11.9 min.
The same measure for `CCn1cc(C(=O)O)c(=O)c2cnc(N3CCNCC3)nc21` [Pipemidic acid]: 3.48 min; for `CCCOP(=S)(OCCC)SCC(=O)N1CCCCC1C` (configuration not stated) [Piperophos]: 12.3 min.
On to `Cc1nc(N(C)C)nc(OC(=O)N(C)C)c1C` [Pirimicarb], for which the LC retention time is 5.67 min.
The same measure for `CCOP(=S)(OCC)Oc1cc(C)nc(N(CC)CC)n1` [Pirimiphos-ethyl]: 13 min; for `CCN(CC)c1nc(C)cc(OP(=S)(OC)OC)n1` [Pirimiphos-methyl]: 12.4 min.
The same measure for `CCC(C)C(=O)OC1CC(O)C=C2C=CC(C)C(CCC(O)CC(O)CC(=O)O)C21` (configuration not stated) [Pravastatin]: 7.96 min; for `O=C(C1CCCCC1)N1CC(=O)N2CCc3ccccc3C2C1` (configuration not stated) [Praziquantel]: 10.1 min; for `CC(=O)OCC(=O)C1(O)CCC2C3CCC4=CC(=O)C=CC4(C)C3C(O)CC21C` (configuration not stated) [Prednisolone 21-acetate]: 9.54 min.
As for `CCCOCCN(C(=O)CCl)c1c(CC)cccc1CC` [Pretilachlor], the figure is 12.5 min.
